Data on one substance can be found in patent publication US20210071180A1, “MICRORNA 584-5P COMPOSITIONS AND METHODS FOR TREATING CANCER” (BOARD OF REGENTS, THE UNIVERSY OF TEXAS SYSTEM, priority 2018, published 2021).

Assay type in all cases: cell-based
Data set [1] deals with 3′-UTR of HDAC1. Description: Dual luciferase 3′-UTR reporter assay (HDAC1). The settings on record: miR-584-5p mimic in comparison with scrambled. The method, then: Dual luciferase assay. Wild-type or mutant 3′-UTR segments of the eIF4E3 and HDAC1 gene were cloned downstream of the luciferase gene in pGL3-promoter vector at the SacI and SpeI restriction sites. HEK293 cells were cotransfected with Renilla luciferase vector (pRLnull 380) and firefly luciferase vector containing pGL3-wt-eIF4E3; pGL3-mut-eIF4E3; or pGL3-wt-HDAC1, pGL3-mut-HDAC1, or pGL3 overnight and incubated in fresh complete medium for an additional 48 hours after transfection. Cells were then transfected with miRNA mimic (Invitrogen) for 24 hours. Next, cells were harvested with 1× passive lysis buffer (Promega) and luciferase activity was read using GLOMAX 20/20 luminometer (Promega).
Data are z-transformed. The cutoff criteria for each gene are fold change >2, sample intensity >10, and p-value <0.05. […] To validate the gene expression analysis and target prediction results, it was determined whether miR-584-5p reduced HDAC1/eIF4E3 expression by binding to their 3′-untranslated regions (3′-UTRs). […] Also shown are the portion of the miR-584-5p sequence (SEQ ID NO: 15; UAUGGUU) that binds to the wild-type 3′UTR and seed sequence mutant (SEQ ID NO: 16; […], top panel; and SEQ ID NO: 17; […]; bottom panel). Also shown is miR-584-5p seed sequence mutated sequences. […] The p-values were calculated using standard Student t-tests. […] The p-values were calculated using standard Student t-tests.
On the technique in general: In a reporter assay the amount or activity of a reporter protein is the signal.

Data set [2] deals with PGC-1α. Description: qRT-PCR of PGC-1α expression. The conditions noted are these: miR-584-5p-treated MB cells. From the text: One such gene is peroxisome proliferator-activated receptor gamma coactivator 1-α, which codes for PGC-1α protein, which HDAC1 inhibits in brown adipocytes (Li, F. et al. J Biol Chem 291, 4523-4536, (2016)). The results disclosed herein reveal that PGC-1α expression is increased in miR-584-5p-treated MB cells (FIG. 10). […] The data in FIG. 10 represent Log 2 ratio tumor/cerebellum control. Data mined from GSE28245. ***, p<0.001; ** , p<0.01; * , p<0.05.
VCR disrupts the integrity of the mitotic spindle and destabilizes microtubules (George, P., Journey, L. J. & Goldstein, M. N. J Natl Cancer Inst 35, 355-375 (1965)). Therefore, it was tested whether miR-584-5p and its target genes might affect microtubule dynamics. First, expression of tubulins was deteremined because VCR resistance has been associated with altered expression of tubulin isotypes (Sirotnak, F. M., Danenberg, K. D., Chen, J., Fritz, F. & Danenberg, P. V. Biochem Biophys Res Commun 269, 21-24, (2000)). […] In FIG. 12A, the p-values were calculated using standard Student t-tests. Error bars represent mean±SEM. ****, p<0.0001. […] The p-values were calculated using standard Student t-tests. Error bars represent mean±SEM. […] In FIG. 11F, the p-values were calculated using standard Student t-tests. […] In FIG. 11H, The p-values were calculated using standard Student t-tests. […] Quantitative real-time PCR. […]

The test system of data set [3] is TUBB3, TUBB2a, and TUBB2b. Description: qPCR analysis of β-tubulin isotypes. The settings on record: miR-584-5p-overexpressing cells. Here is the method:
DNA is stained with DAPI (blue), whereas spindle is stained with β-tubulin (red) (below).
VCR disrupts the integrity of the mitotic spindle and destabilizes microtubules (George, P., Journey, L. J. & Goldstein, M. N. J Natl Cancer Inst 35, 355-375 (1965)). Therefore, it was tested whether miR-584-5p and its target genes might affect microtubule dynamics. First, expression of tubulins was deteremined because VCR resistance has been associated with altered expression of tubulin isotypes (Sirotnak, F. M., Danenberg, K. D., Chen, J., Fritz, F. & Danenberg, P. V. Biochem Biophys Res Commun 269, 21-24, (2000)). […] In FIG. 12A, the p-values were calculated using standard Student t-tests. Error bars represent mean±SEM. ****, p<0.0001. […] The p-values were calculated using standard Student t-tests. Error bars represent mean±SEM. To further test how miR-584-5p and its target genes affect spindle integrity, immunofluorescence analysis was performed on miR-584-5p-overexpressing or eIF4E3/HDAC1-silenced MB cells. […] In FIG. 11F, the p-values were calculated using standard Student t-tests. Error bars represent mean±SEM. […] In FIG. 11H, The p-values were calculated using standard Student t-tests. Error bars represent mean±SEM. ****, p<0.0001; ***, p<0.001; **, p<0.01; *, p<0.05. Quantitative real-time PCR. Total RNA was extracted using miRNAeasy kit (Qiagen). […]
On the technique in general: In qPCR the cycle at which signal appears reflects the starting amount.

The test system of data set [4] is MB stem cells. Nature of the data set: Medullosphere (tumor sphere) formation in serum-free stem cell media. The settings on record: D556Med cells. Here is the method: Several research groups have posited the presence of tumor-initiating cells in MBs (Manoranjan, B. et al. Pediatr Res 71, 516-522, (2012)). Moreover, the tumor-initiating cells in general have not responded to radiation and chemotherapy drugs (Manoranj an, B. et al. Pediatr Res 71, 516-522, (2012)). Therefore, it was tested whether miR-584 may inhibit MB tumor-initiating cell proliferation. Consistent with the characteristics of tumor-initiating cells, MB cells cultured in serum-free stem cell media formed tumor spheres that were serially passaged for many cycles (FIG. 14A). Bar graphs show number and size of medullospheres obtained from D556Med cells transfected with miR-NC or miR-584-5p mimic. The p-value was calculated using a standard Student t-test. Error bars represent mean±SEM. […] The p-value was calculated using one-way ANOVA followed by Sidak's multiple-comparisons test. Error bars represent mean±SEM. These findings are highly significant because, this study is one of the first to propose a role for miR-584-5p and its target genes in regulating MB stem cell proliferation.

The subject of data set [5] is normal neural stem cell. Nature of the data set: Normal neural stem cell growth.

In the case of “miR-584-5p: microRNA mimic; nucleotide sequence UUAUGGUUUGCCUGGGACUGAG (SEQ ID NO: 1); purchased from Thermofisher (chemistry not given here)”, in data set [1], the “luciferase activity, HDAC1 3′-UTR with mutated miR-584-5p binding sites” value is “no change in luciferase activity” and the “luciferase activity, wild-type HDAC1 3′-UTR construct” value is “significantly reduced”. Also, the PGC-1α expression entry in data set [2] is given as “increased”. The “transcript levels of TUBB3, TUBB2a, and TUBB2b” value in data set [3] is listed as “significantly reduced transcript levels”. In data set [4], the “number and size of medullospheres / MB stem cell proliferation” value is “significantly smaller and fewer spheres”. In addition, in data set [5], the “normal neural stem cell growth” value is “without affecting normal neural stem cell growth”.
